Where a chain is given by its changes, count along the chain named. Read-outs that look alike come from different tables or passages of the source. Where a SMILES comes first, the peptide text is derived from it.
How the values were obtained:
[1] = target: T1, MOB3C (Homo sapiens, UniProt Q70IA8); assay: Fluorescence polarization peptide binding assay, MOB3C; settings: Fig. 5A, FP, 20 nM FITC labeled peptide, pH 7.5, mean ± S.E. (n = 3), read-out: Kd, μM (to MST1 pT367 peptide)
T1 construct: MOB3C (2–216, NP_660322); 6xHis (N, cleaved yes); GST (N, cleaved yes); made in house; host or cells: E. coli BL21 (DE3) CodonPlus RIL
T1 sequence (Q70IA8 2-216): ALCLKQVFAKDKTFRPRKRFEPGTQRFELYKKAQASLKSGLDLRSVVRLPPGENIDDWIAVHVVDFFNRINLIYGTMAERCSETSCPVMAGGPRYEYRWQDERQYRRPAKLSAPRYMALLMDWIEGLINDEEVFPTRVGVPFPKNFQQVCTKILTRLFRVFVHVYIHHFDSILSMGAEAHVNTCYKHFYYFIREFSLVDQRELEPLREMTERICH
Source text: (§1) Human MST1 kinase domain (amino acids 2–326, corresponding to NCBI RefSeq protein NP_006273), MST2 kinase domain (2–322, NP_006272), MOB1B (2–216, NP_001231695), MOB1A (2–216, NP_060691) wild-type and indicated MOB1A mutant proteins, MOB2 (2–237, NP_001165694), MOB3A (2–217, NP_570719), MOB3B (2–216, NP_079037), MOB3C (2–216, NP_660322), MOB4 (2–225, NP_056202), MOB4^RRR→AAA (2–225), and yeast Mob1 (79–314, NP_012160) were expressed in E. coli BL21 (DE3) CodonPlus RIL cells as N-terminal dual 6xhistidine (HIS) and glutathione S-transferase (GST), Tobacco Etch Virus (TEV) cleavable, fusion proteins using a modified pETM-30 vector. MOB wild-type and mutants were purified in batch on glutathione-Sepharose resin (GE Healthcare, Uppsala, Sweden) and eluted by cleavage from the affinity tags with HIS tagged TEV protease. […]
(§2) MST1 phosphopeptides encompassing pT353 and pT367 (15-mers) used for crystallization and FITC labeled nonphosphorylated and phosphorylated MST1 T353 peptides, T367 peptides, T329-T340 peptides, T380-T387 peptides and optimized Nud1-like peptides for fluorescence polarization binding experiments were purchased from Biomatik (Cambridge, ON). […]
(§3) Twelve-point fluorescence polarization binding measurements were performed in triplicate in 384-well plate format using an Analyst HT (Artisan-Scientific, Sunnyvale, CA) reader. […]

[2] = target: T2, MOB1A KRR→3A mutant (Homo sapiens, UniProt Q9H8S9, K153A/R154A/R157A); assay: Fluorescence polarization peptide binding assay, MOB1A KRR→3A mutant (K153, R154, R157 to alanine); settings: Fig. 2B, MOB1A KRR→3A (K153, R154, R157 to alanine); FP, 20 nM FITC labeled peptide, pH 7.5; n = 3; N.D. = Kd could not be determined
T2 construct: MOB1A (2–216, NP_060691) wild-type and indicated MOB1A mutant proteins; 6xHis (N, cleaved yes); GST (N, cleaved yes); made in house; host or cells: E. coli BL21 (DE3) CodonPlus RIL
T2 sequence (Q9H8S9 2-216 K153A/R154A/R157A): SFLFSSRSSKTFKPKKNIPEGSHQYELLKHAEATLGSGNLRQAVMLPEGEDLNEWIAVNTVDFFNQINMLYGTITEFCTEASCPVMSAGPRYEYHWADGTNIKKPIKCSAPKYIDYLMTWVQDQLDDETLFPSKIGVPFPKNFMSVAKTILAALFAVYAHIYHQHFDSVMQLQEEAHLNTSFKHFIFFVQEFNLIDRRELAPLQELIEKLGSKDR
Source text: as §1, §2, §3

[3] = target: T3, MOB4 (Homo sapiens, UniProt Q9Y3A3); assay: Fluorescence polarization peptide binding assay, MOB4; settings: Fig. 5A, FP, 20 nM FITC labeled peptide, pH 7.5, mean ± S.E. (n = 3), read-out: Kd, μM (to MST1 pT367 peptide)
T3 construct: MOB4 (2–225, NP_056202); 6xHis (N, cleaved yes); GST (N, cleaved yes); made in house; host or cells: E. coli BL21 (DE3) CodonPlus RIL
T3 sequence (Q9Y3A3 2-225): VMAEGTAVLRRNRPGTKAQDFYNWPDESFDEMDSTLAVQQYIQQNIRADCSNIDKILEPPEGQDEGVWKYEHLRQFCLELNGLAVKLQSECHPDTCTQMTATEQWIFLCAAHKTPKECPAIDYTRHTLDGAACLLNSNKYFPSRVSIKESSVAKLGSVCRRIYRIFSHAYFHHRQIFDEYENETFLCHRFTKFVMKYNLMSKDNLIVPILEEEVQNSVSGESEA
Source text: as §1, §2, §3

[4] = target: T4, MOB3A (Homo sapiens, UniProt Q96BX8); assay: Fluorescence polarization peptide binding assay, MOB3A; settings: Fig. 5A, FP, 20 nM FITC labeled peptide, pH 7.5, mean ± S.E. (n = 3), read-out: Kd, μM (to MST1 pT367 peptide)
T4 construct: MOB3A (2–217, NP_570719); 6xHis (N, cleaved yes); GST (N, cleaved yes); made in house; host or cells: E. coli BL21 (DE3) CodonPlus RIL
T4 sequence (Q96BX8 2-217): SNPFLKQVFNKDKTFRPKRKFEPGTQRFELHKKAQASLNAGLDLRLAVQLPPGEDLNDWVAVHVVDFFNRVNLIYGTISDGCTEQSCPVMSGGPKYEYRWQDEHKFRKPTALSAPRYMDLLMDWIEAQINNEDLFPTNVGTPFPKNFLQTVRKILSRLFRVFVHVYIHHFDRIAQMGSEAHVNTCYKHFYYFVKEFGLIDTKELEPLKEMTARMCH
Source text: as §1, §2, §3

[5] = target: T5, MOB1A (Homo sapiens, UniProt Q9H8S9); assay: Fluorescence polarization peptide binding assay, MOB1A wild-type; settings: FP, 20 nM FITC labeled peptide, pH 7.5
T5 construct: MOB1A (2–216, NP_060691); 6xHis (N, cleaved yes); GST (N, cleaved yes); made in house; host or cells: E. coli BL21 (DE3) CodonPlus RIL
T5 sequence (Q9H8S9 2-216): T2 sequence (Q9H8S9 2-216 K153A/R154A/R157A) with A152K, A153R, A156R
Source text: Human MST1 kinase domain (amino acids 2–326, corresponding to NCBI RefSeq protein NP_006273), MST2 kinase domain (2–322, NP_006272), MOB1B (2–216, NP_001231695), MOB1A (2–216, NP_060691) wild-type and indicated MOB1A mutant proteins, MOB2 (2–237, NP_001165694), MOB3A (2–217, NP_570719), MOB3B (2–216, NP_079037), MOB3C (2–216, NP_660322), MOB4 (2–225, NP_056202), MOB4^RRR→AAA (2–225), and yeast Mob1 (79–314, NP_012160) were expressed in E. coli BL21 (DE3) CodonPlus RIL cells as N-terminal dual 6xhistidine (HIS) and glutathione S-transferase (GST), Tobacco Etch Virus (TEV) cleavable, fusion proteins using a modified pETM-30 vector. MOB wild-type and mutants were purified in batch on glutathione-Sepharose resin (GE Healthcare, Uppsala, Sweden) and eluted by cleavage from the affinity tags with HIS tagged TEV protease. TEV protease was removed from the eluted protein by subtractive immobilized-metal affinity chromatography. Cleaved protein was then concentrated and buffer exchanged by size exclusion chromatography (SEC) using a Superdex 75 120 ml column (GE Healthcare). For GST pull-downs and Far-Western analysis, the TEV cleavage step was omitted.
MST1 phosphopeptides encompassing pT353 and pT367 (15-mers) used for crystallization and FITC labeled nonphosphorylated and phosphorylated MST1 T353 peptides, T367 peptides, T329-T340 peptides, T380-T387 peptides and optimized Nud1-like peptides for fluorescence polarization binding experiments were purchased from Biomatik (Cambridge, ON). Peptide sequences used for crystallization studies are: T353, […](p)TMIEH and T367, […](p)TMVINA. All peptides used for biophysical studies are listed in supplemental Table S1.
Twelve-point fluorescence polarization binding measurements were performed in triplicate in 384-well plate format using an Analyst HT (Artisan-Scientific, Sunnyvale, CA) reader. Each 20 μl measurement condition contained 20 nM FITC labeled MST1 peptide or Nud1-like peptide and the indicated concentration of MOB proteins in 25 mM HEPES pH 7.5, 150 mM NaCl, 2 mM DTT, and 1 mg/ml bovine serum albumin (BSA). Kd values were obtained by fitting the results to a one site-specific binding model using GraphPad Prism.

[6] = target: T6, MOB3B (Homo sapiens, UniProt Q86TA1); assay: Fluorescence polarization peptide binding assay, MOB3B; settings: Fig. 5A, FP, 20 nM FITC labeled peptide, pH 7.5, mean ± S.E. (n = 3), read-out: Kd, μM (to MST1 pT367 peptide)
T6 construct: MOB3B (2–216, NP_079037); 6xHis (N, cleaved yes); GST (N, cleaved yes); made in house; host or cells: E. coli BL21 (DE3) CodonPlus RIL
T6 sequence (Q86TA1 2-216): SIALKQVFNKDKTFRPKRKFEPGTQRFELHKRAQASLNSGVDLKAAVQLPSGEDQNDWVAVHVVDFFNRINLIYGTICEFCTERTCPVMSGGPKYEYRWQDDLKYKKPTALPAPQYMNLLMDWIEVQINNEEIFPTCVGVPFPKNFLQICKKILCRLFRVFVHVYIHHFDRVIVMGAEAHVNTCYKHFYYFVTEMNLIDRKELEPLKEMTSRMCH
Source text: as §1, §2, §3

CC[C@H](C)[C@H](NC(=O)[C@@H](NC(=O)[C@H](CCSC)NC(=O)[C@@H](NC(=O)CNC(=O)[C@H](CC(C)C)NC(=O)[C@H](CCC(N)=O)NC(=O)[C@H](CO)NC(=O)[C@@H]1CCCN1C(=O)[C@H](CC(C)C)NC(=O)[C@@H](NC(=O)[C@H](CC(=O)O)NC(=O)[C@@H](N)CC(=O)O)[C@@H](C)O)[C@@H](C)OP(=O)(O)O)C(C)C)C(=O)N[C@@H](CC(N)=O)C(=O)N[C@@H](C)C(=O)O [pT367] (HELM PEPTIDE1{D.D.T.L.P.S.Q.L.G.[C[C@@H](OP(=O)(O)O)[C@H](N[*:1])C(=O)[*:2]].M.V.I.N.A}$$$$V2.0)
Kd [1]: 2 to 3 µM
Kd [2]: no measurable binding
Kd [3]: 12.2 µM
Kd [4]: 2 to 3 µM
Kd ([5]; recombinant wild-type MOB1A, read-out: Kd): 0.68 µM
Kd ([5]; Fig. 5A, MOB1A, mean ± S.E. (n = 3), read-out: Kd, μM (to MST1 pT367 peptide)): 0.67 ± 0.09 µM
Kd [6]: 2 to 3 µM

Source: publication PMC5461540, “MOB1 Mediated Phospho-recognition in the Core Mammalian Hippo Pathway” (Molecular & Cellular Proteomics : MCP, 2017)
